From patent US20250115578A1, “AROMATIC FUSED RING NAV1.8 INHIBITOR, AND USE THEREOF” (CHENGDU KANGHONG PHARMACEUTICAL CO., LTD., priority 2022, published 2025)
≈ marks a conversion by molar mass, not a printed value.

What was measured:
[1] = Assay of kinetic solubility; format: physicochemical; conditions: aqueous buffer, kinetic from dmso stock, pH 3.5 phosphate buffer, 25° C.
[2] = test system: postoperative pain model in rats; experiment: Efficacy test in postoperative pain model in rats (mechanical allodynia, PWT); format: in vivo, Sprague-Dawley male rats; conditions: single oral 30 mg/kg; for Inhibition of mechanical hyperalgesia induced by postoperative pain model: at 1 h, 2 h and 4 h after administration
Procedure: Sprague-Dawley male rats, purchased from Zhejiang Vital River Laboratory Animal Technology Co., LTD
Compounds of the example 10, 14, 16, 31 of the invention were weighted and prepared into solutions of 3 mg/mL using 5% DMSO (Anhui Senrise Technologies Co., Ltd)+30% Solutol HS15 (Beijing Ouhe Technology Co., LTD.)+65% water for injection, and administered at a volume of 10 mL/kg by gavage. The dosage was 30 mg/kg.
Animals were anesthetized with Zoletil 50+ Xylazine Hydrochloride (20 mg/kg+8 mg/kg, intraperitoneally injected). The surgical area on the plantar skin of the left hind paw was disinfected three times with iodophor and 70% ethanol, and the surgery was started after the skin was dry.
A longitudinal incision about 1 cm was made towards the toes starting from 0.5 cm away from the heel of the left hind paw. After the skin was incised, the flexor digitorum brevis was raised and longitudinal blunt injury was caused. After hemostasis by pressing, the wound was sutured. After surgery, animals were placed on an electric warm pad and 5 mL of physiological saline was injected subcutaneously to prevent dehydration. 24 h after modeling, all animals (including the normal control group) were tested for base mechanical allodynia (PWT). The modeling animals without mechanical hypersensitivity (PWT greater than 5 g) were excluded and […] were selected and randomly divided into 5 groups, with 9 animals in each group except 5 in the normal group (negative control group).
The animals were weighed and administered orally at a volume of 10 mL/kg. Except normal control animals, other animals were given a single dose of compounds, and mechanical allodynia was performed by test fibers on all groups of animals at 1 h, 2 h and 4 h after dosing. The rats were placed individually in a plexiglass box with a grid at the bottom to ensure that the paws of the rats could be tested. The rats would acclimate for 15 minutes before the test. After the acclimation was completed, the test fibers were used to test on the plantar center of the rat's left hind paw. Pressed the test fiber vertically against the skin and applied force to bend the fiber for 6 to 8 seconds, with 5 second intervals between each test. The rapid withdrawal of the animal's paws during the test was recorded as a pain response. The animal's paw withdrawal when the fibers left the animal's skin was also recorded as a pain response. If the animal moves or walks around, it's not recorded as a pain response, and the test should be repeated.
Mechanical hyperalgesia was expressed as the paw withdrawal threshold (PWT) in the rat behavioral test, which was calculated according to the following formula:
50% response threshold (g)=(10^(Xf+kδ)/10,000 • Xf=final test fiber value used in the test • k=table value (Chaplan et al. 1994, page 62) • δ=mean deviation
Data were collected with excel software and analyzed with Prism 7.0 (Graph pad software, Inc.) software by two-way ANOVA followed by Dunnett multiple comparison test.

| SMILES | solubility kinetic at 2 h [1] [µM] | Inhibition of mechanical hyperalgesia induced by postoperative pain model [2] | Efficacy compared with example compound 31 ([2]; at 1 h and 4 h after administration) | Efficacy compared with example compound 31 ([2]; after 1 h of administration) |
| --- | --- | --- | --- | --- |
| NC(=O)c1cc(NC(=O)c2nc3ccccc3nc2N2CCCC(F)(F)CC2)ccc1F [Example 02, N-(3-carbamoyl-4-fluorophenyl)-3-(4,4-difluoroazepan-1-yl)quinoxaline-2-carboxamide] | 2.8 (≈ 1.24 µg/mL) | – | – | – |
| NC(=O)c1cc(NC(=O)c2nc3ccccc3nc2N2CCCC(F)(F)CC2)ccn1 [Example 05, N-(2-carbamoylpyridin-4-yl)-3-(4,4-difluoroazepan-1-yl)quinoxaline-2-carboxamide] | 0.39 (≈ 0.166 µg/mL) | – | – | – |
| NC(=O)c1cc(NC(=O)c2cc3ccccc3nc2N2CCCC(F)(F)CC2)ccn1 [Example 08, N-(2-carbamoylpyridin-4-yl)-2-(4,4-difluoroazepan-1-yl)quinoline-3-carboxamide] | 175 (≈ 74.5 µg/mL) | – | – | – |
| NC(=O)c1cc(NC(=O)c2cc3cc(F)c(F)cc3nc2N2CCCC(F)(F)CC2)ccn1 [Example 10, N-(2-carbamoylpyridin-4-yl)-2-(4,4-difluoroazepan-1-yl)-6,7-difluoroquinoline-3-carboxamide] | – | inhibited mechanical hyperalgesia | – | – |
| NS(=O)(=O)c1cc(NC(=O)c2cc3ccccc3nc2N2CCCC(F)(F)CC2)ccn1 [Example 14, 2-(4,4-difluoroazepan-1-yl)-N-(2-sulfamoylpyridine-4-yl) quinoline-3-carboxamide] | 271 (≈ 125 µg/mL) | inhibited mechanical hyperalgesia | significantly stronger than that of example compound 31 | – |
| NS(=O)(=O)c1cccc(NC(=O)c2cc3cc(F)c(F)cc3nc2N2CCCC(F)(F)CC2)c1 [Example 16, 2-(4,4-difluoroazepan-1-yl)-6,7-difluoro-N-(3-sulfamoylphenyl) quinoline-3-carboxamide] | – | inhibited mechanical hyperalgesia | – | significantly more effective than example compound 31 |
